This note sets out measurements from paper PMC8710297, “Identification of potent SENP1 inhibitors that inactivate SENP1/JAK2/STAT signaling pathway and overcome platinum drug resistance in ovarian cancer” (Clinical and Translational Medicine, 2021).

The subject of the assay is STAT3. Description: pSTAT3 levels in IGROV1 CR cells (immunoblotting). To be noted: Homo sapiens, IGROV-1, 48 h, read-out: IC50 (pSTAT3 levels, Figure 3C). The format is cell-based. The procedure: FIGURE 3 Identification of UAMMC9 from UA derivatives. (A) Synthesis of UA derivatives. Reagents and conditions: (i) Ac2O, DMAP, Pyridine, r.t.; (ii) Oxalyl chloride, CH2Cl2, r.t., overnight; (iii) amines, TEA, r.t., 0.5–4 h; (iv) NaOH a.q., MeOH/THF, r.t.; (v) amines, MeOH, reflux; (vi) K2CO3, DMF, 60°C. The detail of synthesis was included in supplemental materials. (B) UAMMC9 inhibits Sentrin‐specific protease 1 (SENP1) activity in cells. (C) IGROV1 CR cells treated with indicated UAMMC9 for 48 h. Cells were then harvested and lysates were resolved on sodium dodecyl sulphate‐polyacrylamide gel electrophoresis, followed by immunoblotting for indicated proteins. (D) Cellular thermal shift assay to examine the interaction of UAMMC9 with SENP1. IGROV1 CR cells were incubated with DMSO or UAMMC9 for 4 h before treatment as in Figure 2A. (E) In vitro thermal shift assay to analyze the interactions of UAMMC9 with purified GST‐SENP1(C603A). Stability of SENP1(C603A) was analyzed by using Western blot against SENP1 antibody. […]
Figue S2. […] (B) Quantification of SENP1 in h ib iti o n by UAMMC9 in vitro and in vivo shown in A and Figure 3B . […] SE N P 1 stability wa s analyzed by using We s t e r n blot aga inst SE NP 1 antibody.
(D) Quantification of no n‐denatured SENP1 frac ti on sh own in C. (E) Quantification of th e levels of pSTAT3 as shown in Fi g u e 3C. […]

With `C[C@H]1[C@H](C)CC[C@]2(C(=O)NCC(=O)N(C)CCO)CC[C@]3(C)C(=CC[C@@H]4[C@@]5(C)CC[C@H](O)C(C)(C)[C@@H]5CC[C@]43C)[C@H]12` [UAMMC9], the IC50 was found to be 0.388 µM.

The IC50 is the concentration at which inhibition is half-maximal.
